From patent US7371742B2, “Porphyrin derivatives for photodynamic therapy” (Institut Curie, priority 2001, dated 2008) come the findings set out here.

In data set [1] the test system is RBY-79 (indifferently named Y-79) cells. Kind of data set: RBY-79 (Y79) cell cytotoxicity / photocytotoxicity. The conditions noted are these: for Photocytotoxicity RBY-79, concentration giving 50%: with light; for cytotoxic for Y79 (in words): without light, remark of the inventors.
Description: Columns HT29 and Y79 (═RBY79), without light, correspond to the cytotoxic activity.
In the next data set the test system is L-1210 cells. Kind of data set: Cytotoxicity L-1210 (no light), cytostatic activity. Format: cell-based, human. The conditions noted are these: no light; for Cytotoxicity L-1210 (no light), concentration giving 50%: 50% effect. The source says:
Column L1210 corresponds to the cytostatic activity.

For data set [2], the system named is human colic adenocarcinoma cell line HT29. Put plainly: HT29 cell survival (MTT assay) after 24 h incubation, with or without light irradiation. Particulars: for Photocytotoxicity HT 29, concentration giving 50%: 50% effect, with light; for cytotoxic for HT29 (in words): without light, remark of the inventors. (Tetrazolium assays rely on reduction of a dye to a coloured formazan, in cell work by metabolically active cells.)
Protocol: HT29 cells were cultivated in Dulbecco's MEM supplemented with 10% fetal calf serum (FCS). Cells from log-phase culture were seeded in 24-microwell plates (1 mL-5×10^4 cells/well) and kept at 37° C. in a water-jacketed incubator for 2 days under an air/CO2 atmosphere (5% CO2). Tested compounds, in DMSO solution, were added under the minimum volume (5 μL) to reach a concentration ranging from 0.1 to 10 μg/mL. Controls cells received 5 μL of DMSO free of dye. Plates were incubated 24 h, then medium was removed and the cells were washed twice with phosphate buffered saline (PBS) before addition of fresh medium free of drug and irradiation with visible light using a home made “light box” giving a fluence of 3.8 mW/cm^2 on the whole visible spectrum. Irradiation with red light was carried out using the same device fitted with an orange filter (0% T at 520 nm and 80% T at 590 nm) leading to a fluence of 2 mW/cm^2.
Plates were reincubated for 3 days before evaluation of the cell survival using the MTT assay (T. Mosmann, “Rapid calorimetric assay for cellular growth and survival. Application to proliferation assays”. J. Immunol. Methods 65,55-63,1983) using 30 min incubation with 100 μg well of 3-[4,5-dimethylthiazol-2-yl]-2,5-diphenyl tetrazolium bromide (MTT, Sigma). After removal of the medium, formazan crystals were taken up with 100 μL of DMSO and absorbance at 540 ni was measured with a Bio-Rad microplate reader (model 450); survival was expressed as % of untreated controls.

[3] abbreviates: read-out: Y79 IC50 (μM) With 2J/cm^2, irradiation with filter (0% T at 520 nm, 80% T at 590 nm), 3.5 mW/cm^2, 10 min.
The mark [4] stands for this setting: read-out: Y79 IC50 (μM) without light, without light (cytotoxic activity).
The mark [5] stands for this setting: read-out: HT 29 IC50 (μM) with 2J/cm^2, irradiation with filter (0% T at 520 nm, 80% T at 590 nm), 3.5 mW/cm^2, 10 min.
[6] abbreviates: read-out: HT 29 IC50 (μM) without light, without light (cytotoxic activity).

Where two headings read alike, the source gives them in different places.

Turning to `OC[C@H]1O[C@@H](Sc2c(F)c(F)c(-c3c4nc(c(-c5c(F)c(F)c(S[C@@H]6O[C@H](CO)[C@@H](O)[C@H](O)[C@H]6O)c(F)c5F)c5ccc([nH]5)c(-c5c(F)c(F)c(S[C@@H]6O[C@H](CO)[C@@H](O)[C@H](O)[C@H]6O)c(F)c5F)c5nc(c(-c6c(F)c(F)c(S[C@@H]7O[C@H](CO)[C@@H](O)[C@H](O)[C@H]7O)c(F)c6F)c6ccc3[nH]6)C=C5)C=C4)c(F)c2F)[C@H](O)[C@@H](O)[C@@H]1O` [Compound 25, TPP F4(p-S-β-GluOH)4], the “Photocytotoxicity RBY-79, concentration giving 50%” value in data set [1] (50% effect) was “inactive”. The IC50 in data set [1] (setting [3]) is 4 µM; in data set [1] (setting [4]) it was greater than 10 µM; in data set [2] (setting [5]) it was greater than 10 µM; in data set [2] (setting [6]), greater than 10 µM. Besides, the “Cytotoxicity L-1210 (no light), % at 10 μg/ml” value with L-1210 cells was 18% 10 μg/ml. Further, the “Photocytotoxicity HT 29, concentration giving 50%” value in data set [2] is “inactive”.

`O[C@@H]1[C@@H](O)[C@H](Sc2c(F)c(F)c(-c3c4nc(c(-c5c(F)c(F)c(S[C@@H]6OC[C@@H](O)[C@H](O)[C@H]6O)c(F)c5F)c5ccc([nH]5)c(-c5c(F)c(F)c(S[C@@H]6OC[C@@H](O)[C@H](O)[C@H]6O)c(F)c5F)c5nc(c(-c6c(F)c(F)c(S[C@@H]7OC[C@@H](O)[C@H](O)[C@H]7O)c(F)c6F)c6ccc3[nH]6)C=C5)C=C4)c(F)c2F)OC[C@H]1O` [Compound 27, TPP F4(p-S-β-XylOH)4]: the “Photocytotoxicity RBY-79, concentration giving 50%” value in data set [1] (50% effect) is 50% 1.6 μg/ml. The IC50 is 1 µM in data set [1] (setting [3]), 5 µM in data set [2] (setting [5]) and greater than 10 µM in data set [2] (setting [6]). Besides, the “Y79 IC50 (μM) without light” value in data set [1] (without light (cytotoxic activity)) is given as “Inactive for μM”. Further, the “Cytotoxicity L-1210 (no light), concentration giving 50%” value in the data set on L-1210 cells was 14 µg/mL. In data set [2], the “Photocytotoxicity HT 29, concentration giving 50%” value worked out at 7.5 µg/mL.

For `O[C@@H]1[C@@H](O)[C@H](Sc2c(F)c(F)c(-c3c4nc(c(-c5c(F)c(F)c(S[C@@H]6OC[C@@H](O)[C@H](O)[C@H]6O)c(F)c5F)c5ccc([nH]5)c(-c5c(F)c(F)c(S[C@@H]6OC[C@@H](O)[C@H](O)[C@H]6O)c(F)c5F)c5nc(c(-c6c(F)c(F)c(F)c(F)c6F)c6ccc3[nH]6)C=C5)C=C4)c(F)c2F)OC[C@H]1O` [Compound 28, TPP F4(p-S-β-XylOH)3], the “Photocytotoxicity RBY-79, concentration giving 50%” value in data set [1] (50% effect) worked out at 1.7 µg/mL. Further, the IC50 in data set [1] (setting [3]) was 1.2 µM; in data set [1] (setting [4]), greater than 10 µM; in data set [2] (setting [5]) it was 2.6 µM; in data set [2] (setting [6]), greater than 10 µM. The “Cytotoxicity L-1210 (no light), concentration giving 50%” value in the data set with L-1210 cells amounted to 50% 9 μg/ml. Besides, the “Photocytotoxicity HT 29, concentration giving 50%” value in data set [2] was determined as 50% 3.7 μg/ml.

Consider `OC[C@H]1O[C@H](Sc2c(F)c(F)c(-c3c4nc(c(-c5c(F)c(F)c(S[C@H]6O[C@H](CO)[C@@H](O)[C@H](O)[C@@H]6O)c(F)c5F)c5ccc([nH]5)c(-c5c(F)c(F)c(S[C@H]6O[C@H](CO)[C@@H](O)[C@H](O)[C@@H]6O)c(F)c5F)c5nc(c(-c6c(F)c(F)c(S[C@H]7O[C@H](CO)[C@@H](O)[C@H](O)[C@@H]7O)c(F)c6F)c6ccc3[nH]6)C=C5)C=C4)c(F)c2F)[C@@H](O)[C@@H](O)[C@@H]1O` [Compound 29, TPP F4(p-S-α-MannOH)4], for which the IC50 was 3.3 µM in data set [1] (setting [3]), greater than 10 µM in data set [1] (setting [4]), 2.4 µM in data set [2] (setting [5]) and greater than 10 µM in data set [2] (setting [6]).

For the compound `OC[C@H]1O[C@H](Sc2c(F)c(F)c(/C3=c4\cc/c([nH]4)=C(\c4c(F)c(F)c(F)c(F)c4F)C4=NC(C=C4)[C@@H](c4c(F)c(F)c(F)c(F)c4F)c4ccc([nH]4)/C(c4c(F)c(F)c(S[C@H]5O[C@H](CO)[C@@H](O)[C@H](O)[C@@H]5O)c(F)c4F)=C4/C=CC3=N4)c(F)c2F)[C@@H](O)[C@@H](O)C1O` (stereo partly drawn) [Compound 31], in data set [1], the “Photocytotoxicity RBY-79, % at 2 μg/ml” value was found to be 80% 2 μg/ml.

Take `OC[C@H]1O[C@H](Sc2c(F)c(F)c(-c3c4nc(c(-c5c(F)c(F)c(S[C@H]6O[C@H](CO)[C@@H](O)[C@H](O)[C@@H]6O)c(F)c5F)c5ccc([nH]5)c(-c5c(F)c(F)c(S[C@H]6O[C@H](CO)[C@@H](O)[C@H](O)[C@@H]6O)c(F)c5F)c5nc(c(-c6c(F)c(F)c(F)c(F)c6F)c6ccc3[nH]6)C=C5)C=C4)c(F)c2F)[C@@H](O)[C@@H](O)[C@@H]1O` [Compound 33, TPP F4(p-S-α-MannOH)3]: in data set [1], the “Photocytotoxicity RBY-79, % at 2 μg/ml” value is on record as 90% 2 μg/ml. The IC50 is 2.7 µM in data set [1] (setting [3]), greater than 10 µM in data set [1] (setting [4]), 1.7 µM in data set [2] (setting [5]) and greater than 10 µM in data set [2] (setting [6]).

On to `O[C@@H]1[C@@H](O)[C@H](SCc2ccc(-c3c4nc(c(-c5ccc(CS[C@@H]6OC[C@@H](O)[C@H](O)[C@H]6O)cc5)c5ccc([nH]5)c(-c5ccc(CS[C@@H]6OC[C@@H](O)[C@H](O)[C@H]6O)cc5)c5nc(c(-c6ccc(CS[C@@H]7OC[C@@H](O)[C@H](O)[C@H]7O)cc6)c6ccc3[nH]6)C=C5)C=C4)cc2)OC[C@H]1O` [Compound 64, TPP(p-CH2-S-β-XylOH)4], for which the “RBY-79, concentration giving 50% with light or not” value in data set [1] (50% effect, with light or not) is recorded as 50% at 7 μg/ml. The “Y79 IC50 (μM) With 2J/cm^2” value in data set [1] (irradiation with filter (0% T at 520 nm, 80% T at 590 nm), 3.5 mW/cm^2, 10 min) was “Inactive”. For the same compound, the IC50 in data set [1] (setting [4]) is 3.8 µM; in data set [2] (setting [5]) it was 4.5 µM; in data set [2] (setting [6]) it was greater than 10 µM. Moreover, the “cytotoxic for Y79 (in words)” value in data set [1] is on record as “cytotoxic”. The “Cytotoxicity L-1210 (no light), % at 10 μg/ml” value with L-1210 cells was 32%. In addition, in data set [2] (10 μg/ml), the “Photocytotoxicity HT 29, % at 10 μg/ml” value is given as 30% at.

With `OC[C@H]1O[C@H](SCCOCCOCCOc2ccc(-c3c4nc(c(-c5ccc(OCCOCCOCCS[C@H]6O[C@H](CO)[C@@H](O)[C@H](O)[C@@H]6O)cc5)c5ccc([nH]5)c(-c5ccc(OCCOCCOCCS[C@H]6O[C@H](CO)[C@@H](O)[C@H](O)[C@@H]6O)cc5)c5nc(c(-c6ccccc6)c6ccc3[nH]6)C=C5)C=C4)cc2)[C@@H](O)[C@@H](O)[C@@H]1O` [Compound 74, 5,10,15-tri(para-10-S-α-D-thiomanosyloxy-O-triethylene glycoloxyphenyl)-20-phenylporphyrin], the IC50 in data set [1] (setting [3]) worked out at 0.5 ± 0.3 µM; in data set [1] (setting [4]), 11 ± 5 µM; in data set [2] (setting [5]), 4.8 µM; in data set [2] (setting [6]) it was 10.5 µM.

For `OC[C@H]1O[C@@H](Oc2ccc(-c3c4nc(c(-c5ccc(O[C@@H]6O[C@H](CO)[C@@H](O)[C@H](O)[C@H]6O)cc5)c5ccc([nH]5)c(-c5ccc(O[C@@H]6O[C@H](CO)[C@@H](O)[C@H](O)[C@H]6O)cc5)c5nc(c(-c6ccccc6)c6ccc3[nH]6)C=C5)C=C4)cc2)[C@H](O)[C@@H](O)[C@@H]1O` [TPP(p-O-β-GluOH)3, reference compound], the IC50 in data set [1] (setting [3]) is 0.9 µM; in data set [1] (setting [4]), greater than 15 µM; in data set [2] (setting [5]), 1.5 ± 0.2 µM; in data set [2] (setting [6]), greater than 15 µM.

In the case of `OC[C@H]1O[C@@H](Oc2ccc(-c3c4nc(c(-c5ccc(O[C@@H]6O[C@H](CO)[C@@H](O)[C@H](O)[C@H]6O)cc5)c5ccc([nH]5)c(-c5ccc(O[C@@H]6O[C@H](CO)[C@@H](O)[C@H](O)[C@H]6O)cc5)c5nc(c(-c6ccc(O[C@@H]7O[C@H](CO)[C@@H](O)[C@H](O)[C@H]7O)cc6)c6ccc3[nH]6)C=C5)C=C4)cc2)[C@H](O)[C@@H](O)[C@@H]1O` [TPP(p-O-β-GluOH)4, reference compound], the IC50 in data set [1] (setting [3]) was 5.2 ± 4 µM; in data set [1] (setting [4]), 7 ± 4 µM; in data set [2] (setting [5]), greater than 10 µM; in data set [2] (setting [6]), greater than 10 µM.

For `Oc1ccc(-c2c3nc(c(-c4ccc(O)cc4)c4ccc([nH]4)c(-c4ccc(O)cc4)c4nc(c(-c5ccccc5)c5ccc2[nH]5)C=C4)C=C3)cc1` [TPP(p-OH)3, reference compound], the IC50 in data set [1] (setting [3]) is 1.8 ± 0.1 µM; in data set [1] (setting [4]), greater than 10 µM; in data set [2] (setting [5]), 1.65 ± 0.07 µM; in data set [2] (setting [6]) it was greater than 15 µM.

For the compound `Oc1ccc(-c2c3nc(c(-c4ccc(O)cc4)c4ccc([nH]4)c(-c4ccc(O)cc4)c4nc(c(-c5ccc(O)cc5)c5ccc2[nH]5)C=C4)C=C3)cc1` [TPP(p-OH)4, reference compound], the IC50 in data set [1] (setting [3]) was found to be 0.3 µM; in data set [1] (setting [4]), 4.7 ± 2.5 µM; in data set [2] (setting [5]), 0.8 ± 1 µM; in data set [2] (setting [6]), 7.75 ± 3 µM. Moreover, in data set [1], the “cytotoxic for Y79 (in words)” value is “cytotoxic”. The “cytotoxic for HT29 (in words)” value in data set [2] was “cytotoxic”.

In the case of `Oc1cccc(-c2c3nc(c(-c4cccc(O)c4)c4ccc([nH]4)c(-c4cccc(O)c4)c4nc(c(-c5cccc(O)c5)c5ccc2[nH]5)CC4)C=C3)c1` [m-THPC, reference compound], the IC50 in data set [1] (Homo sapiens, Y79, light or radiation study, 10 min, read-out: Y79 IC50 (μM) With 2J/cm^2) is 0.6 ± 0.03 µM; in data set [1] (Homo sapiens, Y79, read-out: Y79 IC50 (μM) without light), greater than 10 µM; in data set [2] (Homo sapiens, HT-29, light or radiation study, 10 min, read-out: HT 29 IC50 (μM) with 2J/cm^2), 0.8 ± 0.3 µM; in data set [2] (Homo sapiens, HT-29, read-out: HT 29 IC50 (μM) without light) it was greater than 10 µM. Further, in data set [1], the “cytotoxic for Y79 (in words)” value was “cytotoxic”. The “cytotoxic for HT29 (in words)” value in data set [2] was “cytotoxic”.

In the case of TPPF4(p-O-β-GluOH)4 [Compound 63], the “Photocytotoxicity RBY-79, % at 10 μg/ml white light” value in data set [1] (10 μg/ml, white light) worked out at 37%. Moreover, the IC50 in data set [1] (setting [3]), in data set [1] (setting [4]), in data set [2] (setting [5]) and in data set [2] (setting [6]) was greater than 10 µM in each case.
